How the values were obtained:
CCRF-CEM = type: cell-based; conditions: 10^−5 molar
HL-60(TB) = type: cell-based; conditions: 10^−5 molar
K-562 = type: cell-based; conditions: 10^−5 molar
MOLT-4 = type: cell-based; conditions: 10^−5 molar
RPMI-8226 = type: cell-based; conditions: 10^−5 molar
SR = type: cell-based; conditions: 10^−5 molar
A549/ATCC = type: cell-based; conditions: 10^−5 molar
HOP-62 = type: cell-based; conditions: 10^−5 molar
NCI-H226 = type: cell-based; conditions: 10^−5 molar
NCI-H23 = type: cell-based; conditions: 10^−5 molar
NCI-H460 = type: cell-based; conditions: 10^−5 molar
NCI-H522 = type: cell-based; conditions: 10^−5 molar
COLO 205 = type: cell-based; conditions: 10^−5 molar
HCC-2998 = type: cell-based; conditions: 10^−5 molar
HCT-116 = type: cell-based; conditions: 10^−5 molar
HCT-15 = type: cell-based; conditions: 10^−5 molar
HT29 = type: cell-based; conditions: 10^−5 molar
KM12 = assay: cells; type: cell-based; conditions: 10^−5 molar
SW-620 = type: cell-based; conditions: 10^−5 molar
SF-268 = type: cell-based; conditions: 10^−5 molar
SF-295 = type: cell-based; conditions: 10^−5 molar
SF-539 = type: cell-based; conditions: 10^−5 molar
SNB-19 = type: cell-based; conditions: 10^−5 molar
SNB-75 = type: cell-based; conditions: 10^−5 molar
MALME-3M = type: cell-based; conditions: 10^−5 molar
M14 = type: cell-based; conditions: 10^−5 molar
MDA-MB-435 = type: cell-based; conditions: 10^−5 molar
SK-MEL-28 = type: cell-based; conditions: 10^−5 molar
SK-MEL-5 = type: cell-based; conditions: 10^−5 molar
UACC-257 = type: cell-based; conditions: 10^−5 molar
UACC-62 = type: cell-based; conditions: 10^−5 molar
IGROV1 = type: cell-based; conditions: 10^−5 molar
OVCAR-3 = type: cell-based; conditions: OVCAR-3; 10^−5 molar
OVCAR-4 = type: cell-based; conditions: 10^−5 molar
OVCAR-5 = type: cell-based; conditions: 10^−5 molar
OVCAR-8 = type: cell-based; conditions: 10^−5 molar
NCI/ADR-RES = type: cell-based; conditions: 10^−5 molar
SK-OV-3 = type: cell-based; conditions: 10^−5 molar
786-0 = type: cell-based; conditions: 10^−5 molar
A498 = type: cell-based; conditions: 10^−5 molar
ACHN = type: cell-based; conditions: 10^−5 molar
CAKI-1 = type: cell-based; conditions: 10^−5 molar
RXF 393 = type: cell-based; conditions: 10^−5 molar
SN12C = type: cell-based; conditions: 10^−5 molar
TK-10 = type: cell-based; conditions: 10^−5 molar
UO-31 = type: cell-based; conditions: 10^−5 molar
PC-3 = type: cell-based; conditions: 10^−5 molar
DU-145 = type: cell-based; conditions: 10^−5 molar
MCF7 = type: cell-based; conditions: 10^−5 molar
MDA-MB-231/ATCC = type: cell-based; conditions: 10^−5 molar
HS 578T = type: cell-based; conditions: 10^−5 molar
BT-549 = type: cell-based; conditions: 10^−5 molar
T-47D = type: cell-based; conditions: 10^−5 molar
MDA-MB-486 = type: cell-based; conditions: 10^−5 molar
60 cancer cell lines = assay: NCI 60-cell screen, SRB, whole panel (mean, delta, range); type: cell-based; conditions: 10^−5 molar
HOP-92 = type: cell-based; conditions: Non-small cell lung cancer; 10^−5 molar; 48 hours; SRB
U251 = type: cell-based; conditions: CNS cancer; 10^−5 molar; 48 hours; SRB
LOX IMVI = type: cell-based; conditions: Melanoma; 10^−5 molar; 48 hours; SRB
SK-MEL-2 = type: cell-based; conditions: Melanoma; 10^−5 molar; 48 hours; SRB
[1] = Non-small cell lung cancer, 48 hours, SRB

O=c1c2cc(Cl)ccc2sc2c(NC3CCCCC3)nc3ccccc3c12 [Compound N21, 10-Chloro-6-(cyclohexylamino)-12H-thiochromeno[2,3-c]quinolin-12-one]
Growth percent (CCRF-CEM; CCRF-CEM): 92.23%
Growth percent (HL-60(TB); HL-60(TB)): 107.06%
Growth percent (K-562; K-562): 102.86%
Growth percent (MOLT-4; MOLT-4): 92.42%
Growth percent (RPMI-8226; RPMI-8226): 94.56%
Growth percent (SR; SR): 85.52%
Growth percent (A549/ATCC; A549/ATCC): 85.28%
Growth percent (HOP-62; HOP-62): 101.46%
Growth percent (NCI-H226; NCI-H226): 93.26%
Growth percent (NCI-H23; NCI-H23): 91.11%
Growth percent (NCI-H460; NCI-H460): 91.29%
Growth percent (NCI-H522; NCI-H522): 83.95%
Growth percent (COLO 205; COLO 205): 103.96%
Growth percent (HCC-2998; HCC-2998): 109.83%
Growth percent (HCT-116; HCT-116): 65.37%
Growth percent (HCT-15; HCT-15): 91.71%
Growth percent (HT29; HT29): 105.11%
Growth percent (KM12; KM12): 112.90%
Growth percent (SW-620; SW-620): 87.98%
Growth percent (SF-268; SF-268): 92.06%
Growth percent (SF-295; SF-295): 92.22%
Growth percent (SF-539; SF-539): 91.20%
Growth percent (SNB-19; SNB-19): 106.72%
Growth percent (SNB-75; SNB-75): 81.91%
Growth percent (MALME-3M; MALME-3M): 93.42%
Growth percent (M14; M14): 103.41%
Growth percent (MDA-MB-435; MDA-MB-435): 106.98%
Growth percent (SK-MEL-28; SK-MEL-28): 101.79%
Growth percent (SK-MEL-5; SK-MEL-5): 97.00%
Growth percent (UACC-257; UACC-257): 103.68%
Growth percent (UACC-62; UACC-62): 93.23%
Growth percent (IGROV1; IGROV1): 83.31%
Growth percent (OVCAR-3): 91.85%
Growth percent (OVCAR-4; OVCAR-4): 72.10%
Growth percent (OVCAR-5; OVCAR-5): 98.06%
Growth percent (OVCAR-8; OVCAR-8): 74.91%
Growth percent (NCI/ADR-RES; NCI/ADR-RES): 95.91%
Growth percent (SK-OV-3; SK-OV-3): 94.54%
Growth percent (786-0; 786-0): 97.69%
Growth percent (A498; A498): 93.00%
Growth percent (ACHN; ACHN): 97.31%
Growth percent (CAKI-1; CAKI-1): 72.76%
Growth percent (RXF 393; RXF 393): 97.03%
Growth percent (SN12C; SN12C): 89.12%
Growth percent (TK-10; TK-10): 127.96%
Growth percent (UO-31; UO-31): 72.52%
Growth percent (PC-3; PC-3): 75.02%
Growth percent (DU-145; DU-145): 104.25%
Growth percent (MCF7; MCF7): 46.14%
Growth percent (MDA-MB-231/ATCC; MDA-MB-231/ATCC): 77.17%
Growth percent (HS 578T; HS 578T): 94.22%
Growth percent (BT-549; BT-549): 105.53%
Growth percent (T-47D; T-47D): 72.43%
Growth percent (MDA-MB-486; MDA-MB-486): 108.92%
Growth percent, Delta (60 cancer cell lines; delta over panel): 46.48%
Growth percent, Mean (60 cancer cell lines; mean over panel): 92.62%
Growth percent, Range (60 cancer cell lines; range over panel): 81.82%
melting point: 196 to 197 °C

CCC(CC)Nc1nc2ccccc2c2c(=O)c3cc(Cl)ccc3sc12 [Compound N6, 10-Chloro-6-(pentan-3-ylamino)-12H-thiochromeno[2,3-c]quinolin-12-one]
Growth percent CCRF-CEM (CCRF-CEM; Leukemia, 48 hours, SRB): 93.72%
Growth percent HL-60(TB) (HL-60(TB); Leukemia, 48 hours, SRB): 141.93%
Growth percent K-562 (K-562; Leukemia, 48 hours, SRB): 95.25%
Growth percent MOLT-4 (MOLT-4; Leukemia, 48 hours, SRB): 103.08%
Growth percent RPMI-8226 (RPMI-8226; Leukemia, 48 hours, SRB): 108.60%
Growth percent SR (SR; Leukemia, 48 hours, SRB): 104.59%
Growth percent A549/ATCC (A549/ATCC; [1]): 91.04%
Growth percent HOP-62 (HOP-62; [1]): 95.32%
Growth percent HOP-92 (HOP-92): 83.26%
Growth percent NCI-H226 (NCI-H226; [1]): 79.22%
Growth percent NCI-H23 (NCI-H23; [1]): 94.17%
Growth percent NCI-H460 (NCI-H460; [1]): 99.42%
Growth percent NCI-H522 (NCI-H522; [1]): 99.02%
Growth percent COLO 205 (COLO 205; Colon cancer, 48 hours, SRB): 107.68%
Growth percent HCC-2998 (HCC-2998; Colon cancer, 48 hours, SRB): 119.79%
Growth percent HCT-116 (HCT-116; Colon cancer, 48 hours, SRB): 99.01%
Growth percent HCT-15 (HCT-15; Colon cancer, 48 hours, SRB): 95.35%
Growth percent HT29 (HT29; Colon cancer, 48 hours, SRB): 116.70%
Growth percent KM12 (KM12; Colon cancer, 48 hours, SRB): 94.04%
Growth percent SW-620 (SW-620; Colon cancer, 48 hours, SRB): 104.94%
Growth percent SF-268 (SF-268; CNS cancer, 48 hours, SRB): 102.86%
Growth percent SF-295 (SF-295; CNS cancer, 48 hours, SRB): 104.18%
Growth percent SF-539 (SF-539; CNS cancer, 48 hours, SRB): 95.09%
Growth percent SNB-19 (SNB-19; CNS cancer, 48 hours, SRB): 99.01%
Growth percent SNB-75 (SNB-75; CNS cancer, 48 hours, SRB): 73.24%
Growth percent U251 (U251): 97.05%
Growth percent LOX IMVI (LOX IMVI): 89.35%
Growth percent MALME-3M (MALME-3M; Melanoma, 48 hours, SRB): 92.36%
Growth percent M14 (M14; Melanoma, 48 hours, SRB): 107.34%
Growth percent MDA-MB-435 (MDA-MB-435; Melanoma, 48 hours, SRB): 108.13%
Growth percent SK-MEL-2 (SK-MEL-2): 104.97%
Growth percent SK-MEL-28 (SK-MEL-28; Melanoma, 48 hours, SRB): 98.40%
Growth percent SK-MEL-5 (SK-MEL-5; Melanoma, 48 hours, SRB): 90.08%
Growth percent UACC-257 (UACC-257; Melanoma, 48 hours, SRB): 99.44%
Growth percent UACC-62 (UACC-62; Melanoma, 48 hours, SRB): 83.74%
Growth percent IGROV1 (IGROV1; Ovarian cancer, 48 hours, SRB): 80.40%
Growth percent OVCAR-4 (OVCAR-4; Ovarian cancer, 48 hours, SRB): 98.77%
Growth percent OVCAR-5 (OVCAR-5; Ovarian cancer, 48 hours, SRB): 99.96%
Growth percent OVCAR-8 (OVCAR-8; Ovarian cancer, 48 hours, SRB): 95.31%
Growth percent NCI/ADR-RES (NCI/ADR-RES; Ovarian cancer, 48 hours, SRB): 101.32%
Growth percent SK-OV-3 (SK-OV-3; Ovarian cancer, 48 hours, SRB): 99.71%
Growth percent 786-0 (786-0; Renal cancer, 48 hours, SRB): 108.84%
Growth percent A498 (A498; Renal cancer, 48 hours, SRB): 103.44%
Growth percent ACHN (ACHN; Renal cancer, 48 hours, SRB): 84.92%
Growth percent CAKI-1 (CAKI-1; Renal cancer, 48 hours, SRB): 73.26%
Growth percent RXF 393 (RXF 393; Renal cancer, 48 hours, SRB): 93.23%
Growth percent SN12C (SN12C; Renal cancer, 48 hours, SRB): 94.28%
Growth percent TK-10 (TK-10; Renal cancer, 48 hours, SRB): 138.89%
Growth percent UO-31 (UO-31; Renal cancer, 48 hours, SRB): 78.57%
Growth percent PC-3 (PC-3; Prostate cancer, 48 hours, SRB): 84.63%
Growth percent DU-145 (DU-145; Prostate cancer, 48 hours, SRB): 109.54%
Growth percent MCF7 (Table 2: MCF) (MCF7; Breast cancer, 48 hours, SRB): 67.12%
Growth percent MDA-MB-231/ATCC (MDA-MB-231/ATCC; Breast cancer, 48 hours, SRB): 77.83%
Growth percent HS 578T (HS 578T; Breast cancer, 48 hours, SRB): 89.81%
Growth percent BT-549 (BT-549; Breast cancer, 48 hours, SRB): 109.76%
Growth percent T-47D (T-47D; Breast cancer, 48 hours, SRB): 73.62%
Growth percent MDA-MB-486 (MDA-MB-486; Breast cancer, 48 hours, SRB): 95.79%
Growth percent, Delta (60 cancer cell lines; delta over the cell panel, 48 hours, SRB): 29.82%
Growth percent, Mean (60 cancer cell lines; mean over the cell panel, 48 hours, SRB): 96.94%
Growth percent, Range (60 cancer cell lines; range over the cell panel, 48 hours, SRB): 74.81%
melting point: 160 to 161 °C
